Where two headings read alike, the source gives them in different places.
Columns and labels:
[1] = male, Sprague Dawley, rat, in vivo, 5 mg/kg
Description: (§1) The combo dose was prepared by mixing both by 1:1 to yield a concentration of 5 mg/mL for each compound (pH˜6) for intravenous and oral administration. The obtained solution was clear and colourless.
(§2) Male Sprague Dawley rats (body weight: 170 g to 220 g) were used in this study. Before the pharmacokinetic studies, animals were randomly assigned to the treatment groups.
(§3) The plasma samples and the dose formulation were stored at −20° C. until bioanalysis.
(§4) Plasma samples (0.1 mL) were transferred to Eppendorff tube, then 20 μL methanol, and 300 μL IS solution (50 ng/mL) were added to it. After Vortexing for 1 min and centrifuging for 5 min at 15,000 rpm, 5 μL of supernatant was injected into LC/MS/MS.
(§5) The concentrations in plasma below the limit of quantitation (LOQ=5 ng/mL) were designated as zero. The pharmacokinetic data analysis was performed using noncompartmental analysis modules in WinNonlin2.0.

[2] = in vivo; conditions: male, Sprague Dawley, rat, 5 mg/kg
Description: as §1, §2, §3, §4, §5

[3] = system: mtDNA-encoded protein synthesis; assay: Mitochondria Toxicity Study (Complex IV/Frataxin ratio in HepG2 cells); conditions: conclusion in words
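For Plasma Concentration Mean in this document: drug levels in rat plasma quantified by LC/MS/MS after a combined two-compound formulation, quantitation limit 5 ng/mL with lower values set to zero, parameters from noncompartmental analysis.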
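For Plasma Concentration in this document: drug levels in rat plasma quantified by LC/MS/MS after a combined two-compound formulation, quantitation limit 5 ng/mL with lower values set to zero, parameters from noncompartmental analysis.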
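For Vd in this document: drug levels in rat plasma quantified by LC/MS/MS after a combined two-compound formulation, quantitation limit 5 ng/mL with lower values set to zero, parameters from noncompartmental analysis.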
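For volume of distribution at terminal phase as % of total body water in this document: drug levels in rat plasma quantified by LC/MS/MS after a combined two-compound formulation, quantitation limit 5 ng/mL with lower values set to zero, parameters from noncompartmental analysis.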

**Q.** What does the source list for `CC(=O)NC[C@H]1CN(c2ccc(N3CCOCC3)c(F)c2)C(=O)O1` [linezolid]?
**A.** volume of distribution at terminal phase as % of total body water ([1]; iv): 131.34%; Plasma Concentration Mean ([1]; iv, 0.25 hr): 4607.18 ng/mL; Plasma Concentration Mean ([1]; iv, 0.5 hr): 3776.24 ng/mL; Plasma Concentration Mean ([1]; iv, 1 hr): 2796.88 ng/mL; Plasma Concentration Mean ([1]; iv, 2 hr): 1436.16 ng/mL; Plasma Concentration Mean ([1]; iv, 4 hr): 320.08 ng/mL; Plasma Concentration Mean ([1]; iv, 6 hr): 63.05 ng/mL; Plasma Concentration Mean ([1]; iv, 8 hr): 19.45 ng/mL; Plasma Concentration Mean ([1]; iv, 10 hr): 6.33 ng/mL; Plasma Concentration ([1]; iv, 12 hr): 0 ng/mL; Plasma Concentration ([1]; iv, 24 hr): 0 ng/mL; Plasma Concentration Mean ([1]; po, 0.25 hr): 2152.89 ng/mL; Plasma Concentration Mean ([1]; po, 0.5 hr): 2180.60 ng/mL; Plasma Concentration Mean ([1]; po, 1 hr): 1892.82 ng/mL; Plasma Concentration Mean ([1]; po, 2 hr): 1337.56 ng/mL; Plasma Concentration Mean ([1]; po, 4 hr): 612.50 ng/mL; Plasma Concentration Mean ([1]; po, 6 hr): 224.99 ng/mL; Plasma Concentration Mean ([1]; po, 8 hr): 71.33 ng/mL; Plasma Concentration Mean ([1]; po, 10 hr): 19.92 ng/mL; Plasma Concentration Mean ([1]; po, 12 hr): 1.72 ng/mL; Plasma Concentration ([1]; po, 24 hr): 0.00 ng/mL; Vd ([2]; iv): 0.76 L/kg; clearance ([2]; iv): 9.17 mL/min/kg; concentration at 12 hr ([2]; iv): 0 ng/mL; concentration at 24 hr ([2]; iv): 0 ng/mL; AUC(0-inf) ([2]; po): 6940 ng·h/mL; Cmax ([2]; po): 2370 ng/mL; concentration at 10 hr ([2]; po): 0 ng/mL; concentration at 12 hr ([2]; po): 0 ng/mL; concentration at 24 hr ([2]; po): 0 ng/mL

**Q.** With `[2H]C1([2H])CN(c2ccc(N3C[C@H](CNC(C)=O)OC3=O)cc2F)CC([2H])([2H])O1` [compound 10, (S)—N-((3-(3-Fluoro-4-(2,2,6,6-d4-morpholino)phenyl)-2-oxooxazolidin-5-yl)methyl)acetamide] as the compound, how does the “volume of distribution at terminal phase as % of total body water” value ([1]; iv) read?
**A.** 113.43%

**Q.** And the “Plasma Concentration” value ([1]; po, 12 hr)?
**A.** 0.00 ng/mL

**Q.** And the concentration at 10 hr ([2]; iv)?
**A.** 0 ng/mL

**Q.** What about the concentration at 12 hr ([2]; po) of the same compound?
**A.** 0 ng/mL

**Q.** And the mitochondria toxicity [3]?
**A.** comparable to that of linezolid
